Laboratory results: patent US5658908A (priority 1992, dated 1997)
“Also recorded” adds a separate entry of the source.

Assays:
delta receptor = delta receptor (Mus musculus, UniProt P32300); experiment: Delta opioid receptor agonist activity; settings: in words
[1] = Side effects on peripheral administration to rats and mice
Mu Receptor [2] = target: T1, Mu Receptor (Rattus norvegicus, UniProt P33535); experiment: Mu receptor binding, rat brain membranes; design: species or system rat (Sprague-Dawley); settings: 125I-[D-Ala2,N-MePhe4,Met(O)ol5]enkephalin 0.1 nM, 24° C., 60 min, mean of (n) experiments, read-out: Mu Receptor IC50
T1 construct: Rat (Sprague-Dawley) brain membranes were prepared; from tissue; host or cells: rat (Sprague-Dawley) brain membranes

guinea pig ileum = experiment: Inhibition of electrically stimulated contraction of guinea pig ileum; type: cell-based; settings: Cavia porcellus, mean of (n) experiments, read-out: Guinea Pig lleum ED50
mouse vas deferens = target: T2, mouse vas deferens (Mus musculus, UniProt P32300); experiment: cell-based
T2 construct: Vasa deferentia were removed from mice; from tissue; host or cells: mouse vas deferens

[3] = Analgesia (test not described); type: in vivo; settings: in words
mu receptor [4] = experiment: Mu opioid receptor agonist activity; settings: in words

Chain of delta receptor (P32300 whole entry): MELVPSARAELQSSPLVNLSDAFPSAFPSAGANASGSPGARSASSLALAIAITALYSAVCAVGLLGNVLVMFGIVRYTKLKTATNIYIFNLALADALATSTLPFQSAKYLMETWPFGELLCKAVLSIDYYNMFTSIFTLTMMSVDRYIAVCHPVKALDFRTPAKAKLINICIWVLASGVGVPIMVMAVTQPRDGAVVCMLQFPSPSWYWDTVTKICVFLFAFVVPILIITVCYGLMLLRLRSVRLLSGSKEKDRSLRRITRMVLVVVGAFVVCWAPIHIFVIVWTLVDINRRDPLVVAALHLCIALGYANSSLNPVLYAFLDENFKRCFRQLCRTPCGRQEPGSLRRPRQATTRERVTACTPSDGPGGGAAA
T2 sequence (P32300 whole entry): as above
T1 sequence (P33535 whole entry): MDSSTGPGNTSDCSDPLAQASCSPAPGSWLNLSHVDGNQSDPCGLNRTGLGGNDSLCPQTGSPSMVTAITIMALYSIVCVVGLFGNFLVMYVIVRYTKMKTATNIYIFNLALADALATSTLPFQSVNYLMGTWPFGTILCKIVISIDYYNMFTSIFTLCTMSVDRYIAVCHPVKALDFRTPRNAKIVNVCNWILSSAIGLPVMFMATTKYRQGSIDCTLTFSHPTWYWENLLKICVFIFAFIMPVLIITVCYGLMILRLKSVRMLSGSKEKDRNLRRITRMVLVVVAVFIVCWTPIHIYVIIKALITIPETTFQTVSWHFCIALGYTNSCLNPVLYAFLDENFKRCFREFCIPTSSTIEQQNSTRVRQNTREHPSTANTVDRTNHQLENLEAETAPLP

Structure (SMILES)	opioid receptor ligand selectivity (opioid receptor)	delta receptor agonist activity (delta receptor)	side effects when administered peripherally [1]	IC50 (Mu Receptor [2])	IC50 (guinea pig ileum)	Kb (mouse vas deferens)	analgesic activity [3]	mu receptor agonist activity (mu receptor [4])
C=CCN1C[C@H](C)N([C@H](c2cccc(O)c2)c2cc(Br)c(C(=O)N(CC)CC)s2)C[C@H]1C (relative stereo) [Compound B, 5-((αR*)-α-((2S*,5R*)-4-allyl-2,5-dimethyl-1-piperazinyl)-3-hydroxybenzyl)-3-bromo-N,N-diethyl-2-thiophenecarboxamide]	highly selective opioid receptor ligand species	predominantly delta receptor agonist; also recorded: delta-opioid agonist	does not produce evident side effects	–	–	–	–	–
CCN(CC)C(=O)c1ccc([C@H](c2cccc(O)c2)N2C[C@@H](C)N(C)C[C@H]2C)cc1 [Example 13, (+)-N,N-diethyl-4-(3-hydroxy-(αR)-α-((2R,5R) -2,4,5-trimethyl-1-piperazinyl)benzyl)benzamide]	–	–	–	2.4 µM	> 10 µM	0.1 µM	–	–
C=CCN1C[C@H](C)N([C@@H](c2ccccc2)c2cccc(O)c2)C[C@H]1C (relative stereo) [Compound I]	–	delta-receptor opiate properties	–	–	–	–	strong analgesics	significant agonist activity
